As usually defined, the melting point is the temperature, or range, at which the solid turns liquid. For orientation: boiling point means the temperature at which the vapour pressure of the liquid equals the pressure above it.

Data on 56 compounds can be found in the OPERA property sets (Mansouri et al. 2018).

Settings in one data set: not given
Turning to `O=C(Cc1c(Cl)ccc(Cl)c1Cl)[O][Na]`, the log10 Koc (L/kg) is 1.72.

As to `O=C=Nc1ccc(Cl)c(Cl)c1`, the melting point is 43 °C.

As to `O=C1Cc2cccc3cccc1c23`, the melting point was found to be 121 °C.

On to `ClC1=C(Cl)C(Cl)(C2(Cl)C(Cl)=C(Cl)C(Cl)=C2Cl)C(Cl)=C1Cl`, for which the log10 Koc (L/kg) was 4.52, the log10 vapour pressure (mmHg) was -5.66 and the melting point came to 122 °C.

`CC(C)NCC(O)COc1ccc(COCCOC(C)C)cc1` (centres undefined): the melting point was determined as 100 °C.

On to `CC(C)CCC(CO)C(C)C` (centres undefined), for which the boiling point amounted to 211 °C.

The compound `Oc1cc(Cl)cc(Br)c1` came in with a boiling point of 256 °C and a melting point of 70 °C.

In the case of `CCP(CC)CC`, the boiling point came out at 129 °C and the melting point was -88 °C.

In turn, `CCOC(=O)C(Br)CBr` (centres undefined) returned a boiling point of 214 °C.

The compound `C=CCc1cc(OC)c2c(c1)OCO2` displayed a boiling point of 276 °C.

Compound `OCC1(CO)CC=CCC1` had a melting point of 88.5 °C.

The compound `Cc1cc(C)c(C=O)c(C)c1` returned a boiling point of 238 °C and a melting point of 14 °C.

As for `CCCCCCCCCCCCNC(=N)N`, the melting point came out at 136 °C.

Regarding `F[Si](F)(F)c1ccccc1`, the boiling point is 102 °C and the melting point was -18 °C.

With `NC(=O)C(CCN1CCCCCC1)(c1ccccc1)c1ccccc1`, the melting point was found to be 142 °C.

As for `C#C[C@H](O)CC`, the boiling point came to 125 °C.

Turning to `Nc1cc(Cl)c(S(N)(=O)=O)cc1S(N)(=O)=O`, the melting point is 254 °C.

For the compound `CNC(=O)Oc1ccccc1C1OCCO1`, the log10 Koc (L/kg) amounted to 1.6, the log10 vapour pressure (mmHg) is -6.52 and the melting point was 114 °C.

Regarding `CCCCCCOC(=O)CCCC`, the boiling point was found to be 226 °C and the melting point is -63.1 °C.

`Ic1ccc(-c2ccccc2)cc1` showed a boiling point of 320 °C and a melting point of 114 °C.

On to `Nc1cc([N+](=O)[O-])ccc1O`, for which the melting point is 144 °C.

In turn, `CC1(C)NC(=O)NC1=O` showed a melting point of 178 °C.

Consider `Cc1ccoc1`, for which the boiling point worked out at 66 °C.

`CC(=O)OC[C@H]([C@H](OC(C)=O)c1ccccc1)[N+](=O)[O-]` yielded a melting point of 70 °C.

The compound `CN(C)CCc1c[nH]c2cccc(OP(=O)(O)O)c12` showed a melting point of 224 °C.

With `CCCCCCC1CCCC1`, the boiling point came to 203 °C and the melting point was -73 °C.

Take `N#Cc1ccccc1N`: the boiling point worked out at 263 °C and the melting point is 51 °C.

Take `CCCCCCCCCCCCCCCC(=O)NCCO`: the melting point was 98.5 °C.

Turning to `CC(=O)[C@H]1CC[C@H]2[C@@H]3CC=C4C[C@@H](O)CC[C@]4(C)[C@H]3CC[C@]12C`, the melting point came to 192 °C.

`CCCCCCCCCCCC#N`: the boiling point was found to be 277 °C, the log10 vapour pressure (mmHg) is -2.63 and the melting point is 4 °C.

Take `O=C(O)C(Cl)Cl`: the boiling point is 194 °C, the log10 Henry constant (atm·m³/mol) was -8.08, the log10 vapour pressure (mmHg) is -0.748 and the melting point came out at 13.5 °C. Also, the ready biodegradability result is “readily biodegradable”.

Take `CCCCCCCCCCCCOC(=O)c1ccc(N)cc1`: the melting point stood at 82 °C.

As to `c1cc2c(c(NC3=NCCN3)c1)CCCC2`, the melting point turned out to be 142 °C.

With `CN(C1CCCCC1)C1CCCCC1`, the boiling point amounted to 265 °C.

`CCCOC(=O)Cn1cc(I)c(=O)c(I)c1`: the melting point was determined as 186 °C.

`C=C=C(C)C`: the boiling point was 40.8 °C, the log10 vapour pressure (mmHg) was found to be 2.63 and the melting point was -114 °C.

Take `CC(=O)O[C@]1(C(C)=O)CC[C@H]2[C@@H]3C=C(C)C4=CC(=O)CC[C@]4(C)[C@H]3CC[C@@]21C`: the melting point stood at 214 °C.

On to `O=C(NC(=O)c1c(F)cccc1F)Nc1cc(Cl)c(OC(F)(F)C(F)F)c(Cl)c1`, for which the melting point was found to be 204 °C.

As for `C=C(C)C(=O)OCC(CC)(COC(=O)C(=C)C)COC(=O)C(=C)C`, the ready biodegradability entry was “readily biodegradable”.

For `CC(CO)Oc1ccccc1` (centres undefined), the boiling point was 244 °C.

As to `OCc1cc(Cl)cc(Cl)c1`, the melting point came out at 80.5 °C.

`Cc1ccc(N(CC2=NCCN2)c2cccc(O)c2)cc1` displayed a melting point of 174 °C.

In turn, `COC(=O)c1cccc(OC)c1` came in with a boiling point of 248 °C.

For `SCCCS`, the boiling point was determined as 173 °C and the melting point is -79 °C.

For the compound `CCC(C)CCC=C(C)C` (centres undefined), the boiling point stood at 163 °C.

Compound `Cc1cc(Sc2cc(C)c(O)c(C(C)(C)C)c2)cc(C(C)(C)C)c1O` yielded a melting point of 126 °C.

As to `N#CSC#N`, the melting point came out at 63.5 °C.

For the compound `CC1=C2[C@H]3OC(=O)[C@@H](C)[C@@H]3[C@@H](O)C[C@@]2(C)C=CC1=O`, the melting point was determined as 203 °C.

For `CCC(C)Br` (centres undefined), the boiling point worked out at 91.2 °C, the log10 vapour pressure (mmHg) is 1.76 and the melting point was -112 °C.

Consider `c1ccc2cnccc2c1`, for which the boiling point amounted to 243 °C, the log10 vapour pressure (mmHg) is -1.16 and the melting point worked out at 26.5 °C.

With `Nc1cc(S(N)(=O)=O)ccc1S(=O)(=O)CCCO`, the melting point is 137 °C.

Consider `C=Cc1cccnc1`, for which the boiling point turned out to be 162 °C.

The same data set, now with this note: fish.
In the case of `O=[N+]([O-])c1ccccc1Cl`, the log10 BCF was 1.17 and the log10 biotransformation half-life (days) was -0.58.

On to `CC(CCl)OP(=O)(OC(C)CCl)OC(C)CCl` (centres undefined), for which the log10 BCF was found to be 0.9 and the log10 biotransformation half-life (days) is -1.31.

As for `O=C1c2ccccc2-c2cccc3cccc1c23`, the log10 BCF came to 2.09 and the log10 biotransformation half-life (days) was -0.69.

As to `Clc1ccc(Oc2c(Cl)cc(Cl)cc2Cl)c(Cl)c1`, the log10 biotransformation half-life (days) was determined as 1.69.
